Results: ChEMBL document CHEMBL1201862, “PubChem BioAssay data set” (2004)
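All cell lines were grown in 96-well plates and treated with compound for 48 hours. Here, GI50 denotes the concentration required for 50% inhibition of growth.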 Calls of active or inactive are those of the source. No stated cut-off is given here; in the data, active = GI50 up to about 1.1 µM and inactive = higher.

Tests used:
Assay in all cases: growth of human tumour cells (NCI), 48 h
[1] = system: 786-0
[2] = system: A498
[3] = system: CAKI-1
[4] = system: EKVX
[5] = system: HCT-15
[6] = system: HT-29
[7] = system: Hs-578T
[8] = system: LOX IMVI
[9] = system: M14
[10] = system: Malme-3M
[11] = system: NCI/ADR-RES
[12] = system: OVCAR-8
[13] = system: RXF 393
[14] = system: SF-268
[15] = system: SF-295
[16] = system: SK-MEL-2
[17] = system: SK-MEL-5
[18] = system: SK-OV-3

Compound	GI50 [1]	GI50 [2]	GI50 [3]	GI50 [4]	GI50 [5]	GI50 [6]	GI50 [7]	GI50 [8]	GI50 [9]	GI50 [10]	GI50 [11]	GI50 [12]	GI50 [13]	GI50 [14]	GI50 [15]	GI50 [16]	GI50 [17]	GI50 [18]
O=[N+]([O-])c1ccc(C2NC(=S)NC3c4cc([N+](=O)[O-])ccc4CCCC23)cc1 (stereo not given)	97.1 µM (inactive)	76.7 µM (inactive)	> 100 µM (inactive)	77.3 µM (inactive)	> 100 µM	> 100 µM (inactive)	> 100 µM (inactive)	> 100 µM (inactive)	> 100 µM (inactive)	> 100 µM (inactive)	> 100 µM (inactive)	52.2 µM (inactive)	18.2 µM (inactive)	46.8 µM (inactive)	46.6 µM (inactive)	> 100 µM (inactive)	> 100 µM (inactive)	> 100 µM (inactive)
Cc1ccc(C(C2C(=O)N(C)C(=O)N(C)C2=O)C(F)(F)C(=O)N(C)C)cc1 (stereo not given)	> 100 µM (inactive)	> 100 µM (inactive)	> 100 µM (inactive)	> 100 µM (inactive)	> 100 µM	–	–	> 100 µM (inactive)	> 100 µM (inactive)	> 100 µM (inactive)	> 100 µM (inactive)	> 100 µM (inactive)	> 100 µM (inactive)	> 100 µM (inactive)	> 100 µM (inactive)	> 100 µM (inactive)	> 100 µM (inactive)	> 100 µM (inactive)
Cc1nc2ccc(F)cc2c(Cl)c1CCCl	34.1 µM (inactive)	63.1 µM (inactive)	–	13.9 µM (inactive)	34.3 µM	25 µM (inactive)	43.9 µM (inactive)	25.2 µM (inactive)	–	31.6 µM (inactive)	43 µM (inactive)	49.3 µM (inactive)	21.7 µM (inactive)	37.1 µM (inactive)	51.1 µM (inactive)	–	22 µM (inactive)	–
CSC12c3cc(C)n(-c4ccccc4)c3CC(C)(C)CN1C(=O)C2Oc1ccccc1 (stereo not given)	83.8 µM (inactive)	54 µM (inactive)	> 100 µM (inactive)	26.5 µM (inactive)	28.1 µM	–	–	17.5 µM (inactive)	12.4 µM (inactive)	–	62.4 µM (inactive)	97.3 µM (inactive)	> 100 µM (inactive)	–	8.18 µM (inactive)	72.8 µM (inactive)	22.4 µM (inactive)	–
COc1cc2c(/C=C3/C(=O)N(C)c4ccc(O)cc43)c(Cl)[nH]c2cc1C	0.362 µM (active)	2.06 µM (inactive)	0.394 µM (active)	1.57 µM (inactive)	0.426 µM	0.401 µM (active)	0.269 µM (active)	0.594 µM (active)	0.238 µM (active)	0.179 µM (active)	0.703 µM (active)	0.597 µM (active)	0.475 µM (active)	2.07 µM (inactive)	0.262 µM (active)	0.641 µM (active)	0.282 µM (active)	0.326 µM (active)
CC1(C)C(=O)N(O)C(C)(C)N1N=O	> 10 µM (inactive)	–	> 10 µM (inactive)	> 10 µM (inactive)	> 10 µM	> 10 µM (inactive)	–	–	> 10 µM (inactive)	> 10 µM (inactive)	> 10 µM (inactive)	> 10 µM (inactive)	> 10 µM (inactive)	> 10 µM (inactive)	> 10 µM (inactive)	> 10 µM (inactive)	–	–
CC/C(=N/O)c1ccc2[nH]c3c(C)cc([N+](=O)[O-])c(C)c3c2c1	36 µM (inactive)	–	> 100 µM (inactive)	> 100 µM (inactive)	51.1 µM	37.4 µM (inactive)	–	54.1 µM (inactive)	23.6 µM (inactive)	51.3 µM (inactive)	–	53.2 µM (inactive)	–	61.4 µM (inactive)	52 µM (inactive)	> 100 µM (inactive)	57.3 µM (inactive)	–
